Legend:
[1] = molecular target: Bovine cardiac myosin (Bos taurus (Bovine), UniProt Q9BE39); test: Cardiac muscle myosin II actin-activated ATPase assay (NADH-coupled); format: biochemical; parameters: key to Ratio CMMII:NMII Ki/EC50: NMII-sel: no Ki value for cardiac myosin II could be determined; the compounds had no detectable inhibitory properties versus the cardiac myosin II; conditions: for Ki: 300 nM cardiac myosin, 10 μM actin, 25° C., read-out: CMMII KI; for Ratio CMMII:NMII Ki/EC50: cardiac myosin II Ki over nonmuscle myosin II EC50
Description: (§1) The cardiac muscle myosin II actin-activated ATPase assay is a biochemical assay. Specifically, it is an NADH (nicotinamide adenine dinucleotide)-coupled ATPase assay that relies on NADH fluorescence as a readout. Cardiac myosin is a mechanochemical energy transducer that hydrolyzes ATP to generate force in the presence of its activator, F-actin. The resulting ADP is regenerated to ATP by pyruvate kinase (PK) that transforms one molecule of phosphoenolpyruvate (PEP) to pyruvate in parallel. Subsequently, pyruvate is reduced to lactate by lactate dehydrogenase (LDH) that, in turn, oxidizes one molecule of NADH to NAD. Therefore, the decrease in NADH concentration as a function of time equals the ATP hydrolysis rate. Bovine cardiac myosin is obtained from a commercial source, Cytoskeleton. PK, LDH, ATP, PEP, and NADH are obtained from Sigma. F-actin is prepared in house from Rabbit Muscle Acetone Powder. The assay is run at 25° C. in 384 well black-wall polystyrene microplates with a total volume of 20 μl per well. NADH fluorescence is monitored for 30 minutes with an EnVision Multimode Plate Reader. The slope of the fluorescence response, which is proportional to the reaction rate, is determined by simple linear regression. Final assay conditions are 300 nM cardiac myosin, 10 μM actin, 40 U/ml LDH, 200 U/ml PK, 220 μM NADH, 1 mM PEP, 1 mM ATP in a buffer containing 10 mM 3-(N-morpholino)propanesulfonic acid (pH=7.0), 2 mM MgCl2, 0.15 mM ethylene glycol-bis(p-aminoethyl ether)-N,N,N′,N′-tetraacetic acid, 0.1 mg/mL bovine serum albumin, 0.5% (V/V) dimethyl sulfoxide (DMSO) and 1 mM dithiothreitol. Prior to testing the inhibitory activity of the compounds, a two-fold dilution series starting at 10 mM compound concentration is prepared in DMSO. Subsequently, 100 nl is transferred to each well of the measuring plate containing a mixture of myosin, LDH and PK. The enzymatic reaction is started with the addition of a mixture containing ATP, PEP, NADH and actin. The highest final compound concentration is 50 uM. 20 μM para-aminoblebbistatin in 0.5% DMSO serves as the positive control and 0.5% DMSO alone is the negative control. Reaction rates are determined by using the fluorescence responses of a dilution series of NADH included in all plates and plotted as a function of inhibitor concentration. All measurements are carried out in triplicate. Inhibitory constants are determined by fitting the 16 point dose-response data to a quadratic equation corresponding to a simple one-to-one binding model.

[2] = molecular target: Rabbit skeletal myosin; test: Skeletal muscle myosin II actin-activated ATPase assay; format: biochemical; conditions: 20 nM skeletal muscle myosin II; read-out: SKMMII KI
Description: as §1
The skeletal muscle myosin II actin-activated ATPase assay is performed the same as for cardiac muscle myosin II with the following exceptions: Rabbit skeletal myosin is obtained from Cytoskeleton and the final assay conditions contain 20 nM skeletal muscle myosin II.

[3] = Photostability, percentage remaining undegraded under illumination or in the dark; conditions: for Photostability 4 hours: percentage remaining undegraded after 4 hours illumination; for Photostability 24 hours: percentage remaining undegraded after 24 hours illumination; for Photostability Dark (24 h): percentage remaining undegraded in the dark

Sequence of Bovine cardiac myosin (Q9BE39 whole entry): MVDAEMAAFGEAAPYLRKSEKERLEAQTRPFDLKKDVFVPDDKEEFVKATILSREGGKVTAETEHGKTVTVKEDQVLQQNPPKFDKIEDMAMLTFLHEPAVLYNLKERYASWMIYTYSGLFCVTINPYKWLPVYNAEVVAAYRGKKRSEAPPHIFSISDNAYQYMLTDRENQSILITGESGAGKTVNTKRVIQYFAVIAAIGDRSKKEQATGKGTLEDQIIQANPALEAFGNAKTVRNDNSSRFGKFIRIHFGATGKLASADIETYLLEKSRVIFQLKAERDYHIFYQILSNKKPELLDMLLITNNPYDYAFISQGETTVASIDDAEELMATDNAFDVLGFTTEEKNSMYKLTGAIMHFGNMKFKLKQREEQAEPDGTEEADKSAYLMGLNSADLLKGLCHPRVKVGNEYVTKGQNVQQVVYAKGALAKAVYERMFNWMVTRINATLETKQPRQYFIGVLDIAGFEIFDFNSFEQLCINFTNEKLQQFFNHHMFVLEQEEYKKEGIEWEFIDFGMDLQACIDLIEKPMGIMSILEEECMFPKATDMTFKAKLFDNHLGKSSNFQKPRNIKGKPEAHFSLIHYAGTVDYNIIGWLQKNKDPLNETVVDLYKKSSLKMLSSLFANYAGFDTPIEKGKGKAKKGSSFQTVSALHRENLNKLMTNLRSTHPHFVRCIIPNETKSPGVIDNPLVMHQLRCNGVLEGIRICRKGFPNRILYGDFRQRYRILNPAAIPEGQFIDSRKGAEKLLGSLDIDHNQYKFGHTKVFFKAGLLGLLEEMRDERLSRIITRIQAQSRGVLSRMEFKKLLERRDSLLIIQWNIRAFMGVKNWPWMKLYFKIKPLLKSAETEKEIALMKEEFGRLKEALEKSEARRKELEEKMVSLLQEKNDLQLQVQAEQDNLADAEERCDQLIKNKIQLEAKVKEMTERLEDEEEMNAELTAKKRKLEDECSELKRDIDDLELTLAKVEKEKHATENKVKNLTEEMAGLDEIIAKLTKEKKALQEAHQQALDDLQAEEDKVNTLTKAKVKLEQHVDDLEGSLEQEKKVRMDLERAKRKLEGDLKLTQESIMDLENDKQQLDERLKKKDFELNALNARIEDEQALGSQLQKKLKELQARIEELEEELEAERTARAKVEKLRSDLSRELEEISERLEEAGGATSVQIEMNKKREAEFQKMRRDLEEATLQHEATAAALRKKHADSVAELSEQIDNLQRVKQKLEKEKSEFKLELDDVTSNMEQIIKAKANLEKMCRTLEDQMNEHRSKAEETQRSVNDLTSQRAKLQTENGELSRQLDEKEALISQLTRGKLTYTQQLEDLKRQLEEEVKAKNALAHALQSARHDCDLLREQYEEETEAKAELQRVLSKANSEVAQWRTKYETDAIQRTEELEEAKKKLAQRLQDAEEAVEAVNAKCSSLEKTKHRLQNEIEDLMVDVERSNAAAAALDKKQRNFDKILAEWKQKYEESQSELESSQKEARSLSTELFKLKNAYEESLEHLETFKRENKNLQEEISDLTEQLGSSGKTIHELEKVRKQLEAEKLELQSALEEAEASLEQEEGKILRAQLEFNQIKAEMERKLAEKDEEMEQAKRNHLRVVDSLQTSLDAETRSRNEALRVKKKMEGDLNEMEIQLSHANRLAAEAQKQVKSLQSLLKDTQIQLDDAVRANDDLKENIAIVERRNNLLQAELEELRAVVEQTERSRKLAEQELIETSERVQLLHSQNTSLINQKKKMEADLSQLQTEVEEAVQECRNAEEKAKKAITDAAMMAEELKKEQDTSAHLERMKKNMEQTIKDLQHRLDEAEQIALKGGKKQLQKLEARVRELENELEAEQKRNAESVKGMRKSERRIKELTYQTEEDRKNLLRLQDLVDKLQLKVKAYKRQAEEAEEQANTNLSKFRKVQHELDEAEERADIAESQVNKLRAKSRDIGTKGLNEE
Sequence of Bovine cardiac myosin (P85100 whole entry partner): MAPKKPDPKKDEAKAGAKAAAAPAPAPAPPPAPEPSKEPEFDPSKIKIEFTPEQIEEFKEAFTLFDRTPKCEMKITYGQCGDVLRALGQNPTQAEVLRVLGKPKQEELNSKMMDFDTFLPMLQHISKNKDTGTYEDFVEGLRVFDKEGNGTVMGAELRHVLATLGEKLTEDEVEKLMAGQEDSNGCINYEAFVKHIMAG
Sequence of Bovine cardiac myosin (Q3SZE5 whole entry partner): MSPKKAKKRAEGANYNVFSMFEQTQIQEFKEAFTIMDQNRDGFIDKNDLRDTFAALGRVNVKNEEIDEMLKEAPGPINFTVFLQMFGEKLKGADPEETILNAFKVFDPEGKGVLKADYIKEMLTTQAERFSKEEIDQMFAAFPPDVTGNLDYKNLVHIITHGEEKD

SMILES | Ki [1] | Ratio CMMII:NMII Ki/EC50 [1] | Ki [2] | Photostability 4 hours [3] | Photostability 24 hours [3] | Photostability Dark (24 h) [3]
Cc1cc2c(cc1C)C(=O)[C@]1(O)CCN(c3ccc4ccoc4c3)C1=N2 [BPN-0026664] | 29 µM | 33.3 | 1.5 µM | 30.3% | <1% | 97.7%
COc1ccc(N2CC[C@@]3(O)C(=O)c4cc(C)c(C)cc4N=C23)cc1 [BPN-0026665] | 4.2 µM | 6.7 | 0.14 µM | 2.7% | <1% | 97.4%
Cc1ncc(N2CC[C@@]3(O)C(=O)c4cc(F)c(C(F)(F)F)cc4N=C23)s1 [BPN-0026667] | 6.2 µM | 5.2 | 0.33 µM | 85.7% | 2.9% | >99%
Cc1cc2c(cc1F)C(=O)[C@]1(O)CCN(c3ccccc3)C1=N2 [BPN-0026669] | 25 µM | 4.7 | 1.2 µM | 87.8% | 11.2% | >99%
Cc1ncc(N2CC[C@@]3(O)C(=O)c4cc(C)c(C)cc4N=C23)s1 [BPN-0026693] | 3.5 µM | 6.0 | 0.27 µM | 34.1% | 1.7% | >99%
Cc1cc2c(cc1C)C(=O)[C@]1(O)CCN(c3cccs3)C1=N2 [BPN-0026708] | 5.3 µM | 3.1 | 1.4 µM | 40.7% | <1% | >99%
COc1cc(N2CC[C@@]3(O)C(=O)c4cc(C)c(C)cc4N=C23)ccn1 [BPN-0026709] | 30.6 µM | 25.5 | 1.3 µM | 98.7% | 93.0% | 98.2%
Cc1cc2c(cc1C)C(=O)[C@]1(O)CCN(c3cnn(C)c3)C1=N2 [BPN-0026710] | 5.2 µM | 3.1 | 0.95 µM | 6.6% | <1% | >99%
Cc1cc2cc(N3CC[C@@]4(O)C(=O)c5cc(F)c(C)cc5N=C34)ccc2o1 [BPN-0026726] |  | NMII-sel | 4.4 µM | 76.3% | 24.1% | 95.4%
COc1cc(N2CC[C@@]3(O)C(=O)c4cc(F)c(C)cc4N=C23)ccn1 [BPN-0026745] | 73 µM | 25.2 | 2.6 µM | >99% | 94.2% | >99%
Cc1cc2c(cc1F)C(=O)[C@]1(O)CCN(c3cnn(C)c3)C1=N2 [BPN-0026746] | 17 µM | 3.8 | 3.6 µM | 58.8% | 10.6% | >99%
Cc1cc2c(cc1F)C(=O)[C@]1(O)CCN(c3cccs3)C1=N2 [BPN-0026748] | 14 µM | 4.7 | 2.6 µM | 88.2% | 22.4% | >99%
CCc1cc2c(s1)N=C1N(c3ccc4ccoc4c3)CC[C@@]1(O)C2=O [BPN-0026749] |  | NMII-sel | 23 µM | 87.8% | <5% | >99%
CCc1cc2c(s1)N=C1N(c3ccc(Cl)cc3)CC[C@@]1(O)C2=O [BPN-0026770] |  | NMII-sel | 1.5 µM | >99% | 92.9% | >99%
CCc1cc2c(s1)N=C1N(c3ccc(C)cc3)CC[C@@]1(O)C2=O [BPN-0026774] | 8.9 µM | 3.4 | 1.1 µM | 86.7% | 18.1% | >99%
O=C1c2c(sc3ccccc23)N=C2N(c3ccccc3)CC[C@@]12O [BPN-0026785] | 23 µM | 3.1 | 5.9 µM | 95.8% | 59.3% | 91.6%
COc1ccc(N2CC[C@@]3(O)C(=O)c4c(sc(C)c4C)N=C23)cc1 [BPN-0026813] | 1.6 µM | 3.1 | 0.11 µM | 82.0% | <1% | >99%
Cc1sc2c(c1C)C(=O)[C@]1(O)CCN(c3ccc(Cl)cc3)C1=N2 [BPN-0026815] | 2.8 µM | 3.6 | 0.27 µM | 91.2% | 88.2% | 90.2%
Cc1ccc(N2CC[C@@]3(O)C(=O)c4cc(C)c(C(F)(F)F)cc4N=C23)cc1 [BPN-0026819] | 50 µM | 27.8 | 1.7 µM | 96.6% | 84.8% | 97.3%
CCc1cc2c(s1)N=C1N(c3ccc(C#N)c(C)c3)CC[C@@]1(O)C2=O [BPN-0026848] | 320 µM | 12.3 | 61 µM | >99% | 98.7% | >99%
COc1ccc(N2CC[C@@]3(O)C(=O)c4cc(C)c(C(F)(F)F)cc4N=C23)cc1 [BPN-0026849] | 16 µM | 16.0 | 0.77 µM | 98.5% | 91.8% | >99%
Cc1cc2cc(N3CC[C@@]4(O)C(=O)c5cc(C)c(C)cc5N=C34)ccc2o1 [BPN-0026852] | 25 µM | 9.6 | 5.6 µM | 62.4% | 3.8% | 85.1%
CCc1cc2c(s1)N=C1N(c3ccc(OC)cc3)CC[C@@]1(O)C2=O [BPN-0026881] | 11 µM | 6.1 | 0.8 µM | 70.9% | 1.8% | >99%
Cc1cc2c(s1)C(=O)[C@]1(O)CCN(c3ccc(C)c(Cl)c3)C1=N2 [BPN-0026882] | 21 µM | 3.6 | 4.5 µM | 98.8% | 96.8% | >99%
Cc1ccc2c(c1)C(=O)[C@]1(O)CCN(c3ccc4ncsc4c3)C1=N2 [BPN-0027036] | 22 µM | 7.3 | 4.9 µM | 90.2% | 24.7% | 97.4%
COc1cc(N2CC[C@@]3(O)C(=O)c4cc(C)c(C(F)(F)F)cc4N=C23)ccn1 [BPN-0027037] |  | NMII-sel | 18 µM | >99% | >99% | >99%
CCc1cc2c(s1)N=C1N(c3ccc(C#N)cc3)CC[C@@]1(O)C2=O [BPN-0027038] | 17 µM | 6.3 | 0.61 µM | >99% | 98.7% | >99%

Source: patent US20250163056A1, “NONMUSCLE MYOSIN II INHIBITORS” (The University of Florida Research Foundation, Inc., priority 2018, published 2025)
